This is an account of results in patent US11690816B2, “Unit doses for immediate release of GHB or of one of the therapeutically acceptable salts thereof, administered orally, and the use thereof to maintain alcohol abstinence” (DEBREGEAS ET ASSOCIES PHARMA, priority 2016, dated 2023).

The conditions of data set [1]: patients with moderate or severe liver disease, same administered dose; cited from earlier work.
Data set [2] in a line: AUC and CMax values dependent on the doses used. The conditions noted are these: human, in vivo, oral. The text has this:
The applicant has found the following AUC and CMax values, which are dependent on the doses used, for doses of 0.37 g, 0.75 g, 1.25 g and 1.75 g: […]

Data set [3] deals with alcohol-dependent patients. The data set can be described thus: phase IIb/III clinical trial, maintaining of alcohol abstinence (PDA, TAC, HDD). It is filed as in vivo, human. As to the method: The following doses were examined: • 0.75 g sodium oxybate three times daily—i.e. 2.25 g per day (99 patients) • 1.25 g sodium oxybate three times daily—i.e. 3.75 g per day (99 patients) • 1.75 g sodium oxybate three times daily—i.e. 5.25 g per day (99 patients) • 2.25 g sodium oxybate three times daily—i.e. 6.75 g per day (100 patients) • Placebo group (99 patients)
The unit doses, packaged in sachets, were administered via oral route in solid form, more particularly in the form of granules.
Efficacy was measured via percentage days of abstinence (PDA), reduced daily intake of alcohol (TAC) and the number of heavy drinking days (HDD). It was sought to analyse the correlation between efficacy of treatment and dose in mg/kg/d. In this respect the conversion to mg/kg/d was made using the following formula: unit dose in g of sodium oxybate×3/patient weight.
In the remainder of the present description, reference is made to two categories of alcoholic patients: • patients with mild to moderate alcohol dependence; • patients with severe to very severe alcohol dependence.

Molecules are shown by their SMILES.

For `O=C(O)CCCO` [gamma-hydroxybutyric acid], the “increase of the main pharmacokinetic parameters compared with patients not suffering from liver disease” value in data set [1] is recorded as “over 120%”.

Turning to `O=C(O)CCCO` [sodium oxybate], the AUC(0-t) (in general, the area under the concentration-time curve up to a stated or last time point) was 14800 ng·h/mL in data set [2] (0.37 g dose), 30000 ng·h/mL in data set [2] (0.75 g dose), 50000 ng·h/mL in data set [2] (1.25 g dose) and 70000 ng·h/mL in data set [2] (1.75 g dose). Also, the Cmax (in general, the peak of the concentration-time curve) in data set [2] (0.37 g dose) came out at 11500 ng/mL; in data set [2] (0.75 g dose), 23000 ng/mL; in data set [2] (1.25 g dose), 39000 ng/mL; in data set [2] (1.75 g dose), 54500 ng/mL. Besides, in data set [3] (mild or moderate alcohol dependence, doses higher than 1.25 g), the “efficacy as share of the efficacy of the optimal dose” value is given as “about 20%”. For the same compound, in data set [3] (mildly or moderately alcohol-dependent patients without liver disease, three times daily), the “unit dose of optimum efficacy (statistical models)” value amounted to 0.75 g. For the same compound, the side effects result in data set [3] (severe or very severe alcohol dependence without liver disease, above 1.75 g three times daily) is “side effects become more numerous and frequent, in particular a sedative effect with nausea and marked fatigue”. In addition, the “optimum unit dose (polynomial regression models)” value in data set [3] (severe or very severe alcohol dependence, without liver disease, three times daily) is recorded as “about 1.5 g”. Also, the “efficacy lower than that of the optimal dose” value in data set [3] (severe or very severe alcohol dependence, doses lower than 1.25 g or higher than 1.75 g) was “up to 80%”.
